This note sets out measurements from patent publication US20070015813A1, “Treatment of protein folding disorders” (QUEEN'S UNIVERSITY AT KINGSTON, priority 2005, published 2007).

The target of one assay is T1, tau441 (Homo sapiens, UniProt P10636).
T1 construct: (expression construct); host or cells: E. coli BL21 D3
Kind of assay: Kinetic Thioflavin S (ThS) assay of tau441 aggregation. The format is biochemical. The following applies: for tau aggregation in the absence of heparin inducer: heparin omitted. How it is done:
The tau441 expression construct [L Buee et al. (2000). Brain Research Reviews 33:95-130] was purchased (Bioclon Inc., San Diego, Calif.) already transformed in BL21 D3 bacterial cells (Novagen/EMD Biosciences) for protein expression. Cells were grown and induced with IPTG according to Novagen's protocol. To lyse cells, Cellytic B reagent (Sigma) was used with lysozyme protease inhibitors (Sigma) and benzonase (Novagen/EMD Biosciences), according to manufacturer's methods. Lysate was cleared by centrifugation for 20 min at 10,000 RPM (SS34 rotor, Sorvall RC2b centrifuge) at 4° C. Protein was purified from the soluble fraction. Once purified, tau441 was stored at −78° C. as frozen aliquots (8.3 mg/mL, 60 μL) in Tris-HCl (50 mM, pH 7.4) until used.
Frozen aliquots of tau441 (8.3 mg/mL, 60 μL) in Tris-HCl (50 mM, pH 7.4) were allowed to thaw at room temperature (RT) before being diluted with Tris-HCl (2.64 mL, 50 mM, pH 7.4) containing dithiothreitol (DTT, 1 mM) to prevent disulfide bonds and NaN3 (50 μM) to prevent bacterial growth. After allowing to stand at RT for 1 h, Thioflavin S (ThS) was added (2.5 μL, 10.8 mM), followed by the aggregation inducer heparin (20 μL, 1.08 g/mL).
(§1) Aliquots (200 μL) of Aβ^1-40, Aβ^1-42, tau441 or α-synuclein with ThT or ThS were added to wells of a black polystyrene 96-well plate, followed by 2 μL of a compound in DMSO (various concentrations), or DMSO alone (controls). For α-synuclein, sodium dodecyl sulfate solution (2.0 μL, 30 mM) was also added to each well to induce aggregation. Incubations were performed in triplicate and were taken to contain 20 μM Aβ^1-40 or Aβ^1-42, 6 μM tau441 or 4 μM α-synuclein. Plates were covered with clear polystyrene lids and incubated at 37° C. in a GENios microplate reader obtained from Tecan Group Limited, Mannedorf, Zurich. For Aβ^1-40, tau441 and α-synuclein, fluorescence readings (λex=450 nm, λem=480 nm) were taken every 15 min., after first shaking at high intensity for 15 sec. and allowing to settle for 10 sec. before each reading. For Aβ^1-42, readings were taken every 5 min.
Aggregation conditions: tau441 at a concentration of either 10 μM (A) or 4 μM (B,C,D,E) was incubated in covered black 96-well polystyrene microplates alone or with 100 (A) or 50 μM compound (B,C,D,E), 5 μM ThS, pH 7.4, Tris-HCl (50 mM) containing NaN3 (50 μM), and either 1% MeOH (A) or 1% DMSO (B,C,D,E). Plates were heated at 37° C. in a Tecan GENios microplate reader. All incubations performed in triplicate, except for compound 0c in (A), which had n=1. Fluorescence readings: fluorescence measured every 15 min. (λex=450 nm, λem=480 nm) after shaking for 15 sec. and pausing 10 sec. before taking measurement. Values are the mean of three replicates. Error bars, sometimes not visible due to small size, represent standard deviation of the mean.
Aggregation conditions: tau441 at a concentration of 4 μM was incubated in covered black 96-well polystyrene microplates alone or with 50 μM (A,B,C) or 1 mM compound (D), 5 μM ThS, pH 7.4, Tris-HCl (50 mM) containing NaN3 (50 μM), and 1% DMSO. Plates were heated at 37° C. in a Tecan GENios microplate reader. All incubations performed in triplicate. Fluorescence readings: fluorescence measured every 15 min. (λex=450 nm, λem=480 nm) after shaking for 15 sec. and pausing 10 sec. before taking measurement. Values are the mean of three replicates. Error bars, sometimes not visible due to small size, represent standard deviation of the mean.

A further assay concerns the target T2, Aβ1-40 (Homo sapiens, UniProt P05067).
T2 construct: Aβ^1-40 (AnaSpec, San Jose, Calif., lots 14212, 34862 and 34889); purchased AnaSpec, San Jose, Calif
Description: Kinetic Thioflavin T (ThT) aggregation assay of Aβ1-40. It is filed as biochemical. The following applies: 20 μM Aβ1-40, 4 μM ThT, pH 7.4, 37° C., kinetic ThT assay. How it is done:
Aβ^1-40 (1.0 mg) was pre-treated in a 1.5 mL microfuge tube with 1,1,1,3,3,3-hexafluoroisopropanol (HFIP, 1 mL) and sonicated for 20 min. to disassemble any pre-formed Aβ aggregates. The HFIP was removed with a stream of argon and the Aβ dissolved in Tris base (5.8 mL, 20 mM, pH 10.5). The pH was adjusted to 7.4 with concentrated HCl and the solution filtered using a syringe filter (0.2 μm). This solution was used for circular dichroism studies or diluted with an equal volume of 8 μM Thioflavin T (ThT) in Tris-HCl (20 mM, pH 7.4, 300 mM NaCl) for the ThT aggregation assay.
as §1
The absorbance of each compound was measured under the conditions used during testing, though on ten times the scale (2 mL), to ensure no significant quenching interfered with the assay. This step was also used to identify whether compounds were completely soluble under testing conditions.
FIG. 1 depicts the inhibition of Aβ^1-40 aggregation, as measured by Thioflavin T (ThT) fluorescence, by directly-linked 3,3′-bis-indolyl compounds 0c-i (A), other bis-indoles (B), aza-indole-containing compounds (C), indole-phenols (D), indole-5-carboxylic acid-containing bi-aromatics (E), and naphthol-containing bi-aromatics (F). Aggregation conditions: 20 μM Aβ^1-40 incubated in covered black 96-well polystyrene microplates with 4 μM ThT, pH 7.4, Tris-HCl (20 mM), 150 mM NaCl, 1% DMSO. Compound concentrations are 200 μM (A,B, except where otherwise noted), 100 μM (E), 20 μM (F), or as indicated (C,D). Plates heated at 37° C. in Tecan Genios microplate reader. All incubations performed in triplicate. Prior to experiment, Aβ^1-40 pretreated with 1,1,1,3,3,3-hexafluoroisopropanol (HFIP). Fluorescence readings: fluorescence measured every 15 min. (λex=450 nm, λem=480 nm) after shaking for 15 sec. and pausing 10 sec. before taking measurement. Values are the mean of three replicates. Error bars, omitted for clarity in (B), represent standard deviation of the mean.

T1 sequence (P10636 1-441 isoform P10636-8): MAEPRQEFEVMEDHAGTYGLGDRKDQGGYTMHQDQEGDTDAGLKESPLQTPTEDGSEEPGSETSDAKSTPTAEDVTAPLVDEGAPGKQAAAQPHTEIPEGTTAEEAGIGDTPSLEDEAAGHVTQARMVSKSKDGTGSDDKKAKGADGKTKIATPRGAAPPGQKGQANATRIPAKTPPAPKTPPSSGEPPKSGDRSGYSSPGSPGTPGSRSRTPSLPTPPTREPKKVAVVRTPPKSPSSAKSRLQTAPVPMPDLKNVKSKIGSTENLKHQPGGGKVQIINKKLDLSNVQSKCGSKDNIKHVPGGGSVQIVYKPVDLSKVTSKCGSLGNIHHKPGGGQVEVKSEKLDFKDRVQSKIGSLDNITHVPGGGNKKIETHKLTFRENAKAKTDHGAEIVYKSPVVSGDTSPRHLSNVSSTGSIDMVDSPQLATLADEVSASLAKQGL
T2 sequence (P05067 672-711 limits assumed): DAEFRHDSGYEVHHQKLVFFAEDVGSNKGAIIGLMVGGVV

Regarding `O=C(O)c1ccc2[nH]cc(-c3c[nH]c4ccc(Br)cc34)c2c1` [0c, 3-(5-bromo-indol-3-yl)-indole-5-carboxylic Acid], the “tau aggregation in the absence of heparin inducer” value on tau441 is “inhibited tau aggregation”. The “inhibition of Aβ1-40 aggregation, as measured by Thioflavin T (ThT) fluorescence” value against Aβ1-40 is given as “dose-response effect”.
Regarding `O=c1c(O)c(-c2ccc(O)cc2O)oc2cc(O)cc(O)c12` [morin], on tau441, the “tau aggregation in the absence of heparin inducer” value is “inhibited tau aggregation”. For the same compound, the “effect on tau fibrillization (ThS fluorescence)” value on tau441 (tau441 4 or 10 μM, 50 to 100 μM compound, 5 μM ThS, heparin inducer, pH 7.4, 37° C.) is “inhibition of tau fibrillization”. Further, the “inhibition of Aβ1-40 aggregation, as measured by Thioflavin T (ThT) fluorescence” value on Aβ1-40 was “inhibition”.
